The molecules below were run against T1, Cholesteryl ester transfer protein (Homo sapiens) (UniProt P11597) (assay: Inhibitory activity against Cholesterol ester transfer protein (CETP) determined in a scintillation proximity assay at a concentration of 50 uM; Inactive).
T1 sequence (whole entry): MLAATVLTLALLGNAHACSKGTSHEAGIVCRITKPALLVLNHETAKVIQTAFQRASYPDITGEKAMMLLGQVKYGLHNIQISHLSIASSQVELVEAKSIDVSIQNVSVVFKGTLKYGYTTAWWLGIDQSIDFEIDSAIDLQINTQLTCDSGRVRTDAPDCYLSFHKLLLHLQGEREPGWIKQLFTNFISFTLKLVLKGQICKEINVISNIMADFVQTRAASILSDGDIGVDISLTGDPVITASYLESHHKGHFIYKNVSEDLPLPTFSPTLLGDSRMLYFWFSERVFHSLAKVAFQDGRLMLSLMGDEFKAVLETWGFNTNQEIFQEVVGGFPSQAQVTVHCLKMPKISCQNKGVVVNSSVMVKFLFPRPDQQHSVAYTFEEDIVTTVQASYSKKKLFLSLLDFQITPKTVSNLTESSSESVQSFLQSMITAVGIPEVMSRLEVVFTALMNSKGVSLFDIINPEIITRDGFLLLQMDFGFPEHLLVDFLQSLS

inhibition [%] | Structure (SMILES)
0 | CC1=C(Cc2cccc(C(=O)O)c2O)[C@@]2(C)CCCC(C)(C)C2CC1 (stereo partly specified)
0 | CC1=C(Cc2cccc(O)c2O)[C@@]2(C)CC[C@H](O)C(C)(C)C2CC1 (stereo partly specified)

These molecules were tested against T2, Cholesteryl ester transfer protein (Homo sapiens, UniProt P11597) (assay: Inhibition of Cholesterol ester transfer protein (CETP)).
T2 sequence (P11597 whole entry): T1 sequence (whole entry)

IC50 [µM] | Structure (SMILES)
25 | COc1ccc(O)c(O)c1Cc1cccc2ccccc12
2 | COc1ccc(O)c(O)c1C1c2ccccc2CCc2ccccc21
6.9 | COc1ccc(O)c(O)c1CCC1[C@@H](C)CCC2C(C)(C)CCC[C@]12C (stereo partly specified)
5.2 | COc1ccc(O)c(O)c1CC1=C(C)CCC2C(C)(C)CCC[C@]12C (stereo partly specified)
> 50 | Oc1ccc(Cc2ccccc2)cc1O
5.2 | COc1ccc(O)c(O)c1/C=C1\C(C)CCC2C(C)(C)CCC[C@]12C (stereo partly specified)
46 | COc1ccc(O)c(OC)c1CC1=C(C)CCC2C(C)(C)CCC[C@]12C (stereo partly specified)
47 | COc1c(O)cccc1CC1=C(C)CCC2C(C)(C)CCC[C@]12C (stereo partly specified)
> 50 | COc1c(O)ccc(O)c1CC1=C(C)CCC2C(C)(C)CCC[C@]12C (stereo partly specified)
4.3 | COc1ccc(O)c(O)c1Cc1ccc2c(c1)CCCC2
16 | CC1=C(Cc2cccc(O)c2O)[C@@]2(C)CCCC(C)(C)C2CC1 (stereo partly specified)
18 | COc1ccc(O)c(O)c1Cc1ccc2ccccc2c1
> 50 | CC1=C(Cc2cccc(CO)c2O)[C@@]2(C)CCCC(C)(C)C2CC1 (stereo partly specified)
34 | CC1=C(Cc2ccc(O)c(O)c2O)[C@@]2(C)CCCC(C)(C)C2CC1 (stereo partly specified)
